Experimental data as given in patent US20140336259A1, “PHENOLIC COMPOUNDS WITH ANTIOXIDANT AND ANTI-CANCER PROPERTIES, ANALOGS AND SYNTHESIS THEREOF” (priority 2011, published 2014).
In brackets after ≈: the same amount, converted by molar mass. Several values for one entry are separate records, joined by “and”; a condition that tells them apart may be missing. Equal values may be shown once. Read-outs that look alike come from different tables or passages of the source.

Tests used:
[1] = tested on: MDA-MB-231 (ER negative) human breast cancer cells; assay: MTS antiproliferative/cytotoxicity assay on MDA-MB-231 cells; assay type: cell-based
[2] = tested on: MCF-7 (estrogen receptor (ER) positive) human breast cancer cells; assay: MTS antiproliferative/cytotoxicity assay on MCF-7 cells; conditions: for MCF-7 IC50: 72 h treatment, mean ± S.D., vs DMSO 0.5% control; for antiproliferative / cytotoxic activity in words: against MCF-7 cells and MDA-MB 231 cells, 72 h of treatment
[3] = tested on: MCF-7 (estrogen receptor (ER) positive) human breast cancer cells
[4] = Homo sapiens, MDA-MB-231, 72 h, 72 h, read-out: IC50 MDA-MB-231 72 h
[5] = Homo sapiens, MDA-MB-231, 72 h, 72 h treatment, mean ± S.D., vs DMSO 0.5% control, read-out: MDA-MB-231 IC50
[6] = Homo sapiens, MDA-MB-231, 96 h, 96 h, read-out: IC50 MDA-MB-231 96 h
[7] = read-out: IC50 MCF-7 24 h, 24 h
[8] = read-out: IC50 MCF-7 48 h, 48 h
[9] = read-out: IC50 MCF-7 72 h, 72 h
[10] = read-out: IC50 MCF-7 96 h, 96 h
[11] = Homo sapiens, MDA-MB-231, 24 h, 24 h, read-out: IC50 MDA-MB-231 24 h
[12] = Homo sapiens, MDA-MB-231, 48 h, read-out: IC50 MDA-MB-231 48 h, 48 h

`COC(=O)c1cc(C(O)(c2ccc(O)c(C(=O)OC)c2)c2ccc(O)c(C(=O)OC)c2)ccc1O` [TRD1] was tested, and the IC50 [1, 4] was 93.9 µg/mL and 195 µM, the IC50 [1, 5] was 93.9 ± 2.4 µg/mL and the IC50 [1, 6] was 89.4 µg/mL and 185 µM. The “IC50 MCF-7 24 h” value ([2]; 24 h) was 94.2 µg/mL (≈ 195 µM), the “IC50 MCF-7 48 h” value ([2]; 48 h) was 89.1 µg/mL (≈ 185 µM) and the “MCF-7 IC50” value [2] was 84.1 ± 3.4 µg/mL. The “IC50 MCF-7 96 h” value ([2]; 96 h) was 78.3 µg/mL (≈ 162 µM), the IC50 [2, 7] was 195 µM and the IC50 [2, 8] was 185 µM. It also gave an IC50 [2, 9] of 174 µM and an IC50 [2, 10] of 162 µM.

With `OCc1cc(CCCCCCCCCCCCc2ccc(O)c(CO)c2)ccc1O` [TRD5] the IC50 [1, 4] was 81.6 µg/mL and 197 µM, the IC50 [1, 5] was 62.9 to 77.4 µg/mL and the IC50 [1, 6] was 78.2 µg/mL and 189 µM. For the same compound, the “IC50 MCF-7 48 h” value ([2]; 48 h) was 80.9 µg/mL (≈ 195 µM), the “MCF-7 IC50” value [2] was 75.9 ± 1.9 µg/mL and the “IC50 MCF-7 96 h” value ([2]; 96 h) was 66.5 µg/mL (≈ 160 µM). For the same compound, the “antiproliferative / cytotoxic activity in words” value [2] was “moderate cytotoxic activity”, the IC50 [2, 8] was 195 µM and the IC50 [2, 9] was 183 µM. For the same compound, the IC50 [2, 10] was 160 µM.

In the case of `COc1ccc(C(O)(c2ccc(OC)c(O)c2)c2ccc(OC)c(O)c2)cc1O` [TRD6], the IC50 [1, 4] is reported as 75.2 µg/mL and 189 µM, the IC50 [1, 5] is reported as 62.9 to 77.4 µg/mL and the IC50 [1, 6] is reported as 71.5 µg/mL and 179 µM. For the same compound, the “IC50 MCF-7 24 h” value ([2]; 24 h) was 78.7 µg/mL (≈ 198 µM), the “IC50 MCF-7 48 h” value ([2]; 48 h) was 66.1 µg/mL (≈ 166 µM) and the “MCF-7 IC50” value [2] was 60.4 ± 1.9 µg/mL. The “IC50 MCF-7 96 h” value ([2]; 96 h) was 43.6 µg/mL (≈ 109 µM), the “antiproliferative / cytotoxic activity in words” value [2] was “moderate cytotoxic activity” and the IC50 [2, 7] was 198 µM. It also gave an IC50 [2, 8] of 166 µM, an IC50 [2, 9] of 152 µM and an IC50 [2, 10] of 109 µM.

`COc1ccc(C(O)(c2ccc(OC)c(F)c2)c2ccc(OC)c(F)c2)cc1F` [TRD7] was tested, and the “IC50 MDA-MB-231 24 h” value ([1]; 24 h) was 36.4 µg/mL (≈ 90 µM), the IC50 ([1]; 24 h, read-out: IC50 MDA-MB-231 24 h) was 90 µM and the “IC50 MDA-MB-231 48 h” value ([1]; 48 h) was 30.4 µg/mL (≈ 75.2 µM). For the same compound, the “IC50 MDA-MB-231 72 h” value ([1]; 72 h) was 24.0 µg/mL (≈ 59.3 µM), the IC50 ([1]; 72 h, read-out: IC50 MDA-MB-231 72 h) was 59.4 µM and the “MDA-MB-231 IC50” value ([1]; 72 h treatment, mean ± S.D., vs DMSO 0.5% control) was 24.0 ± 2.1 µg/mL. The “IC50 MDA-MB-231 96 h” value ([1]; 96 h) was 15.6 µg/mL (≈ 38.6 µM), the IC50 ([1]; 96 h, read-out: IC50 MDA-MB-231 96 h) was 38.7 µM and the IC50 ([1]; read-out: IC50 MDA-MB-231 48 h, 48 h) was 75.3 µM. For the same compound, the “IC50 MCF-7 24 h” value ([2]; 24 h) was 42.3 µg/mL (≈ 105 µM), the “IC50 MCF-7 48 h” value ([2]; 48 h) was 32.7 µg/mL (≈ 80.9 µM) and the “IC50 MCF-7 72 h” value ([2]; 72 h) was 24.8 µg/mL (≈ 61.3 µM). The “IC50 MCF-7 96 h” value ([2]; 96 h) was 23.2 µg/mL (≈ 57.4 µM), the “antiproliferative / cytotoxic activity in words” value [2] was “highest antiproliferative activities” and the IC50 [2, 7] was 105 µM. It also gave an IC50 [2, 8] of 80.9 µM, an IC50 [2, 9] of 61.3 µM and an IC50 [2, 10] of 57.3 µM.

In the case of `COc1ccc(C(O)(c2ccc(OC)c(C=O)c2)c2ccc(OC)c(C=O)c2)cc1C=O` [TRD8], the IC50 [1, 11] is reported as 43.5 µg/mL and 100 µM, the IC50 [1, 12] is reported as 27.8 µg/mL and 63.9 µM and the IC50 [1, 4] is reported as 17.4 µg/mL and 40 µM. For the same compound, the IC50 [1, 5] was 17.5 to 24 µg/mL, the IC50 [1, 6] was 11.2 µg/mL and 25.8 µM and the “IC50 MCF-7 24 h” value ([2]; 24 h) was 42.0 µg/mL (≈ 96.7 µM). The “IC50 MCF-7 48 h” value ([2]; 48 h) was 21.8 µg/mL (≈ 50.2 µM), the “MCF-7 IC50” value [2] was 10.6 ± 2.1 µg/mL and the “IC50 MCF-7 96 h” value ([2]; 96 h) was 7.0 µg/mL (≈ 16.1 µM). For the same compound, the “antiproliferative / cytotoxic activity in words” value [2] was “highest antiproliferative activities”, the IC50 [2, 7] was 96.7 µM and the IC50 [2, 8] was 50.1 µM. It also gave an IC50 [2, 9] of 24.3 µM and an IC50 [2, 10] of 16.2 µM.

In the case of `COc1ccc(C(O)(c2ccc(OC)c(Br)c2)c2ccc(OC)c(Br)c2)cc1Br` [TRD9], the IC50 [1, 11] is reported as 115 µg/mL and 196 µM, the IC50 [1, 12] is reported as 108 µg/mL and 183 µM and the IC50 [1, 4] is reported as 97.8 µg/mL and 167 µM. The IC50 [1, 5] was 97.8 ± 3.5 µg/mL, the IC50 [1, 6] was 89.9 µg/mL and 153 µM and the “IC50 MCF-7 24 h” value ([2]; 24 h) was 110.7 µg/mL (≈ 189 µM). For the same compound, the “IC50 MCF-7 48 h” value ([2]; 48 h) was 102.5 µg/mL (≈ 175 µM), the “MCF-7 IC50” value [2] was 91.4 ± 3.4 µg/mL and the “IC50 MCF-7 96 h” value ([2]; 96 h) was 82.3 µg/mL (≈ 140 µM). The IC50 [2, 7] was 189 µM, the IC50 [2, 8] was 175 µM and the IC50 [2, 9] was 156 µM. It also gave an IC50 [2, 10] of 140 µM.

With `COc1ccc(C(O)(c2ccc(OC)c(Cl)c2)c2ccc(OC)c(Cl)c2)cc1Cl` [TRD10] the IC50 [1, 12] was 85.8 µg/mL and 189 µM, the IC50 [1, 4] was 77.4 µg/mL and 170 µM and the IC50 [1, 5] was 62.9 to 77.4 µg/mL. For the same compound, the IC50 [1, 6] was 68.7 µg/mL and 151 µM, the “antiproliferative / cytotoxic activity in words” value [3] was “moderate cytotoxic activity” and the “IC50 MCF-7 24 h” value ([2]; 24 h) was 87.0 µg/mL (≈ 192 µM). The “IC50 MCF-7 48 h” value ([2]; 48 h) was 81.9 µg/mL (≈ 180 µM), the “MCF-7 IC50” value [2] was 73.5 ± 1.8 µg/mL and the “IC50 MCF-7 96 h” value ([2]; 96 h) was 54.4 µg/mL (≈ 120 µM). For the same compound, the IC50 [2, 7] was 192 µM, the IC50 [2, 8] was 180 µM and the IC50 [2, 9] was 162 µM. The IC50 [2, 10] was 120 µM.
